Laboratory results taken from publication PMC5974779, “Prediction of Drug-Induced Hepatotoxicity Using Long-Term Stable Primary Hepatic 3D Spheroid Cultures in Chemically Defined Conditions” (Toxicological Sciences, 2018).
Read-outs that look alike come from different tables or passages of the source.

Columns and labels:
[1] = system: primary human hepatocytes (PHH) 3D spheroids
clinical DILI in man = settings: cited from earlier work
[2] = ref DrugBank and Prescribers' Digital Reference database; cited from earlier work
PHH 2D sandwich cultures = settings: cited from earlier work
[3] = system: PHH spheroids (hanging-drop); settings: cited from earlier work
[4] = therapeutic total cmax; ref PMID; cited from earlier work
[5] = FDA drug labeling DILI score, ref Chen et al., 2011
[6] = clinical DILI classification in man (POS/NEG)
[7] = clinical DILI classification used in this study, Supplementary Table 2, ref Chen et al., 2011, Guo et al., 2005, O'Brien et al., 2006, Sakatis et al., 2012, Suzuki et al., 2010, Xu et al., 2008
[8] = clinical DILI classification, Supplementary Table 1, ref Chen et al., 2011, Guo et al., 2005, O'Brien et al., 2006, Sakatis et al., 2012, Suzuki et al., 2010, Xu et al., 2008
[9] = clinical DILI classification, ref Xu et al. (2008)
[10] = clinical hepatotoxicity classification, ref O'Brien et al. (2003)
[11] = reported pattern of liver damage, Supplementary Table 2, ref literature
[12] = PHH 2D sandwich cultures, 100x Cmax, ref Xu 2008
[13] = PHH hanging-drop spheroids, 100x Cmax, ref Proctor 2017

Structure (SMILES)	Chemically defined spheroids (this study) 20x [1]	FDA (0-8) (clinical DILI in man; [5])	DILI in vivo (clinical DILI in man; [6])	Classified as (clinical DILI in man; [7])	DILI in vivo (clinical DILI in man; [8])	Xu et al. (2008) (clinical DILI in man; [9])	Type of DILI (clinical DILI in man; [11])	Extent of hepatic metabolism [2]	2Dsw (Xu 2008) 100x (PHH 2D sandwich cultures; [12])	Hanging-drop spheroids (Proctor 2017) 100x [3, 13]	Classified as (clinical DILI in man; in vivo)	Clinical DILI class (panel heading of Figure 4) (clinical DILI in man; in vivo)	DILI in vivo (clinical DILI in man; in vivo)	FDA (0-8) (clinical DILI in man; in vivo)	Sakatis et al. (2012) (clinical DILI in man; in vivo)	Type of DILI (clinical DILI in man; in vivo)	Xu et al. (2008) (clinical DILI in man; in vivo)	Cmax [4] [nM]	further results
CN(Cc1cnc2nc(N)nc(N)c2n1)c1ccc(C(=O)N[C@@H](CCC(=O)O)C(=O)O)cc1 [Methotrexate]	Positive	3	POS	POS	POS	Positive	Hepatocellular injury	Moderate	Negative	Negative									hepatotoxicity evaluation in CD-spheroids [1]: revealed the DILI liability; hepatotoxicity evaluation in CD-spheroids ([1]; human, 14 days): clearly detected already at 1× cmax exposure levels; Guo et al. (2005) (clinical DILI in man; DILI classification score, ref Guo et al. (2005)): 3; Suzuki et al. (2010) (clinical DILI in man; DILI classification score, ref Suzuki et al. (2010)): 1; O'Brien et al. (2003) (clinical DILI in man; [10]): Severely; Sakatis et al. (2012) (clinical DILI in man; clinical hepatotoxicity classification, ref Sakatis et al. (2012)): Hepatotoxic; hepatotoxicity classification in hanging-drop PHH spheroids ([3]; 100× cmax, 2 weeks, ref Proctor et al., 2017): previously missed
CC(C)(C)NCC(O)COc1cccc2c1CC(O)C(O)C2 (stereo not shown) [Nadolol]	Negative	3	NEG	NEG	NEG	Negative	Non-hepatotoxic	Minimal	Negative	Negative									
CS(=O)(=O)Nc1ccc([N+](=O)[O-])cc1Oc1ccccc1 [Nimesulide]	Positive										POS	Severe DILI	POS	Withdrawn	Hepatotoxic	Hepatocellular injury or Cholestatic injury	Positive	21100	FDA (Severity) (clinical DILI in man; in vivo): most DILI concern; O'Brien et al. (2003) (clinical DILI in man; in vivo): Severely; Suzuki et al. (2010) (clinical DILI in man; in vivo): 3; 2Dsw (Xu 2008) 100x (PHH 2D sandwich cultures): Positive; Hanging-drop spheroids (Proctor 2017) 100x [3]: Positive
O=C1CN(/N=C/c2ccc([N+](=O)[O-])o2)C(=O)N1 [Nitrofurantoin]								Minimal		Positive	POS	Severe DILI	POS	8	Hepatotoxic	Hepatocellular injury or Autoimmune hepatitis		21000	FDA (Severity) (clinical DILI in man; in vivo): most DILI concern; Guo et al. (2005) (clinical DILI in man; in vivo): 3; O'Brien et al. (2003) (clinical DILI in man; in vivo): Severely; Suzuki et al. (2010) (clinical DILI in man; in vivo): 2; association with idiopathic autoimmune hepatitis (clinical DILI in man; in vivo): associated with cases of idiopathic autoimmune hepatitis
Cc1ccccc1C(OCCN(C)C)c1ccccc1 (stereo not shown) [Orphenadrine]								Extensive	Negative	Negative	NEG	DILI negative	NEG	0	non-hepatotixic	Non-hepatotoxic	Negative	490	
CCN(CC)CC#CCOC(=O)C(O)(c1ccccc1)C1CCCCC1 (stereo not shown) [Oxybutynin]	Negative										NEG	DILI negative	NEG	0	non-hepatotixic	Non-hepatotoxic	Negative	20	2Dsw (Xu 2008) 100x (PHH 2D sandwich cultures): Negative; Hanging-drop spheroids (Proctor 2017) 100x [3]: Negative
C#CCN(C)Cc1ccccc1 [Pargyline]	Negative		NEG	NEG	NEG		Non-hepatotoxic	Moderate		Negative								820	
CN(CCOc1ccc(CC2SC(=O)NC2=O)cc1)c1ccccn1 (stereo not shown) [Rosiglitazone]		3	NEG	NEG	NEG	Negative	Non-hepatotoxic	Extensive	Negative	Positive								950	O'Brien et al. (2003) (clinical DILI in man; [10]): Non-toxic; Clinical DILI classification (Figure 5) (clinical DILI in man; structural analogue pairs, Figure 5, ref Chen et al., 2011, Xu et al., 2008 and others): DILI negative
Clc1ccccc1CN1CCc2sccc2C1 [Ticlopidine]									Positive	Positive								8070	
